Earlier results as cited in patent publication US20250134380A1, “DETECTION AND LOCALIZATION OF DISEASE UTILIZING FLUORESCENCE SPECTRA OF EXOGENOUS FLUOROPHORES” (PREVIEW MEDICAL INC., priority 2022, published 2025).

Test system: hyperthermia treated tumor
Conditions: animal models; hyperthermia treated vs non-hyperthermia treated tumors

ICG uptake in hyperthermia treated tumor relative to non-hyperthermia treated tumors: 1.23 times
SMILES: CC1(C)C(/C=C/C=C/C=C/C=C2\N(CCCCS(=O)(=O)O)c3ccc4ccccc4c3C2(C)C)=[N+](CCCCS(=O)(=O)[O-])c2ccc3ccccc3c21 [ICG, Indocyanine green]
